From US12325697B2 (Nimbus Clio, Inc., priority 2021, dated 2025)

Assays:
[1] = molecular target: Recombinant human Cbl-b (aa 36-427) (Homo sapiens (Human), UniProt Q13191); assay: Cbl-b Biochemical Assay (TR-FRET); conditions: read-out: TR-FRET hCbl-b IC50
Procedure, shortened: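 IC50 from 4-parameter fit of % inhibition (DMSO max, reference-inhibitor min), duplicate ten-point series. Compound preincubated with 6 nM Cbl-b, then Src-Zap70 (1-2.5 nM)/0.5 mM ATP reaction 60 min RT; EDTA quench with labelled UBE2D2-Ub and streptavidin-terbium, 60 min, HTRF at 520 nm.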

[2] = test system: Jurkat (clone E6-1) cells, NFAT luciferase reporter; assay: Jurkat Reporter Assay (NFAT Luciferase); assay type: cell-based; conditions: Homo sapiens, anti-CD3 stimulation, 6 hr, read-out: Jurkat NFAT EC50
[3] = test system: Phospho-Zap70 (Y-319) in Jurkat wild-type (clone E6-1) cells; assay: Jurkat pZAP70 HTRF Assay; assay type: cell-based; conditions: Homo sapiens, anti-CD3 5 μg/ml, 3 hr, read-out: ZAP70 Jurkat EC50

Chain of Recombinant human Cbl-b (aa 36-427) (Q13191 36-427): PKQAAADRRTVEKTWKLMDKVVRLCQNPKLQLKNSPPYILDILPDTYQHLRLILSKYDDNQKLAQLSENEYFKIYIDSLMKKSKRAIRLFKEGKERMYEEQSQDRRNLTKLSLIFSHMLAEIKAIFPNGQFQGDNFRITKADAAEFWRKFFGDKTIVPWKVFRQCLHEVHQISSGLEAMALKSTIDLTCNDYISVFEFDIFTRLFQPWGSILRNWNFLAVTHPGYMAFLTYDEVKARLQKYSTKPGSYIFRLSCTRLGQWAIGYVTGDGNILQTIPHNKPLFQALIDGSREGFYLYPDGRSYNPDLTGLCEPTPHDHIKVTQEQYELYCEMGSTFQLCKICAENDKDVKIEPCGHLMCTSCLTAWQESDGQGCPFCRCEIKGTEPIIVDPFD

| SMILES | IC50 [1] | EC50 [2] | EC50 [3] |
| --- | --- | --- | --- |
| CNCc1cc2c(c(C(F)(F)F)c1)CN(c1cc(-c3ccc(C#N)cc3-c3nncn3C)cc(C3CC3)n1)C2=O [AGZ-1, 4-(2-Cyclopropyl-6-{6-[(methylamino)methyl]-1-oxo-4-(trifluoromethyl)-3H-isoindol-2-yl}pyridin-4-yl)-3-(4-methyl-1,2,4-triazol-3-yl)benzonitrile] | ≤ 200 nM | < 200 nM | < 200 nM |
| CCNc1cc(-c2ccc(C#N)cc2-c2nncn2C)cc(N2Cc3c(cc([C@@H](O)CN(C)C)cc3C(F)(F)F)C2=O)n1 (single isomer, unassigned) [AGK-1] | ≤ 200 nM | < 200 nM | 200 to 1000 nM |
| CCNc1cc(-c2c(-c3nncn3C)cnn2C)cc(N2Cc3c(cc(COCC4(N)CCC4)cc3C(F)(F)F)C2=O)n1 [AGF-3, 6-{[(1-Aminocyclobutyl)methoxy]methyl}-2-[6-(ethylamino)-4-[2-methyl-4-(4-methyl-1,2,4-triazol-3-yl)pyrazol-3-yl]pyridin-2-yl]-4-(trifluoromethyl)-3H-isoindol-1-one] | ≤ 200 nM | 200 to 1000 nM | 1000 to 10000 nM |
| Cn1cnnc1-c1ccccc1-c1cc(C2CC2)nc(N2Cc3cc(F)c(CNCC4(O)CCC4)cc3C2=O)c1 [AEI-5, 2-{6-Cyclopropyl-4-[2-(4-methyl-1,2,4-triazol-3-yl)phenyl]pyridin-2-yl}-5-fluoro-6-({[(1-hydroxycyclobutyl)methyl]amino}methyl)-3H-isoindol-1-one] | ≤ 200 nM | < 200 nM | < 200 nM |
| Cn1cnnc1-c1cc(Cl)ccc1-c1cc(C2CC2)nc(N2Cc3ccc(CNCC4(O)CCC4)cc3C2=O)c1 [AGW-6, 2-{4-[4-Chloro-2-(4-methyl-1,2,4-triazol-3-yl)phenyl]-6-cyclopropylpyridin-2-yl}-6-({[(1-hydroxycyclobutyl)methyl]amino}methyl)-3H-isoindol-1-one] | ≤ 200 nM | < 200 nM | < 200 nM |
| CCNc1cc(-c2ccc(C#N)cc2-c2nncn2C)cc(N2Cc3c(cc(NC)cc3C(F)(F)F)C2=O)n1 [AFA-2, 4-[2-(ethylamino)-6-[6-(methylamino)-1-oxo-4-(trifluoromethyl)-3H-isoindol-2-yl]pyridin-4-yl]-3-(4-methyl-1,2,4-triazol-3-yl)benzonitrile] | ≤ 200 nM | < 200 nM | 200 to 1000 nM |
| CCNc1cc(-c2ccc(F)cc2-c2nncn2C)cc(N2Cc3c(cc(COCC(C)(C)O)cc3C(F)(F)F)C2=O)n1 [AFG-1, 2-[6-(Ethylamino)-4-[4-fluoro-2-(4-methyl-1,2,4-triazol-3-yl)phenyl]pyridin-2-yl]-6-[(2-hydroxy-2-methylpropoxy)methyl]-4-(trifluoromethyl)-3H-isoindol-1-one] | ≤ 200 nM | < 200 nM | 200 to 1000 nM |
| Cn1cnnc1-c1cc(C#N)ccc1-c1cc(C2CC2)nc(N2Cc3c(cc(CNCCO)cc3C(F)(F)F)C2=O)c1 [AEO-2, 4-[2-Cyclopropyl-6-(6-{[(2-hydroxyethyl)amino]methyl}-1-oxo-4-(trifluoromethyl)-3H-isoindol-2-yl)pyridin-4-yl]-3-(4-methyl-1,2,4-triazol-3-yl) benzonitrile] | ≤ 200 nM | < 200 nM | < 200 nM |
| CCNc1cc(-c2c(-c3nncn3C)cnn2C)cc(N2Cc3c(cc(CO[C@@H]4CCC[C@@H]4O)cc3C(F)(F)F)C2=O)n1 (racemic) [ADB-1, (rac)-2-[6-(ethylamino)-4-[2-methyl-4-(4-methyl-1,2,4-triazol-3-yl)pyrazol-3-yl]pyridin-2-yl]-6-({[(1R,2S)-2-hydroxycyclopentyl]oxy}methyl)-4-(trifluoromethyl)-3H-isoindol-1-one] | ≤ 200 nM | 200 to 1000 nM | 1000 to 10000 nM |
| COCCNCc1ccc2c(c1)C(=O)N(c1cc(-c3ccc(C#N)cc3-c3nncn3C)cc(C3CC3)n1)C2 [AGO-2, 4-(2-Cyclopropyl-6-(6-(((2-methoxyethyl)amino)methyl)-1-oxoisoindolin-2-yl)pyridin-4-yl)-3-(4-methyl-4H-1,2,4-triazol-3-yl)benzonitrile] | ≤ 200 nM | < 200 nM | < 200 nM |
| Cn1cnnc1-c1cc(F)ccc1-c1cc(C2CC2)nc(N2Cc3c(cc(CO)cc3C(F)(F)F)C2=O)c1 [AFK-1, 2-{6-Cyclopropyl-4-[4-fluoro-2-(4-methyl-1,2,4-triazol-3-yl)phenyl]pyridin-2-yl}-6-(hydroxymethyl)-4-(trifluoromethyl)-3H-isoindol-1-one] | ≤ 200 nM | < 200 nM | < 200 nM |
| Cn1cnnc1-c1ccccc1-c1cc(C2CC2)nc(N2Cc3c(cc(CNCC4(O)CCC4)cc3C(F)(F)F)C2=O)c1 [ADZ-2, 2-{6-Cyclopropyl-4-[2-(4-methyl-1,2,4-triazol-3-yl)phenyl]pyridin-2-yl}-6-({[(1-hydroxycyclobutyl)methyl]amino}methyl)-4-(trifluoromethyl)-3H-isoindol-1-one] | ≤ 200 nM | < 200 nM | < 200 nM |
| Cn1cnnc1-c1cc(F)ccc1-c1cccc(N2Cc3c(cc(CNCC4(O)CCC4)cc3C(F)(F)F)C2=O)c1 [AFN-3, 2-[4′-Fluoro-2′-(4-methyl-1,2,4-triazol-3-yl)-[1,1′-biphenyl]-3-yl]-6-({[(1-hydroxycyclobutyl)methyl]amino}methyl)-4-(trifluoromethyl)-3H-isoindol-1-one] | ≤ 200 nM | < 200 nM | < 200 nM |
| Cn1cnnc1-c1cc(C#N)ccc1-c1cc(C2CC2)nc(N2Cc3c(cc(CNCCOC(F)(F)F)cc3C(F)(F)F)C2=O)c1 [AGN-3, 4-{2-Cyclopropyl-6-[1-oxo-6-({[2-(trifluoromethoxy)ethyl]amino}methyl)-4-(trifluoromethyl)-3H-isoindol-2-yl]pyridin-4-yl}-3-(4-methyl-1,2,4-triazol-3-yl)benzonitrile] | ≤ 200 nM | < 200 nM | 200 to 1000 nM |
| Cn1cnnc1-c1cc(C#N)ccc1-c1cc(C2CC2)nc(N2Cc3c(cc(C4(O)CCC4)cc3C(F)(F)F)C2=O)c1 [AGM-5, 4-{2-Cyclopropyl-6-[6-(1-hydroxycyclobutyl)-1-oxo-4-(trifluoromethyl)-3H-isoindol-2-yl]pyridin-4-yl}-3-(4-methyl-1,2,4-triazol-3-yl)benzonitrile] | ≤ 200 nM | < 200 nM | 200 to 1000 nM |
| CC(C)c1cc(-c2ccc(F)cc2-c2nncn2C)cc(N2Cc3ccc(CNCC4(O)CCC4)cc3C2=O)n1 [AFX-1, 2-{4-[4-Fluoro-2-(4-methyl-1,2,4-triazol-3-yl)phenyl]-6-isopropylpyridin-2-yl}-6-({[(1-hydroxycyclobutyl)methyl]amino}methyl)-3H-isoindol-1-one] | ≤ 200 nM | < 200 nM | < 200 nM |
| Cn1cnnc1-c1cc(F)ccc1-c1cc(C2CC2)nc(N2Cc3c(cc(COCC4(O)CCC4)cc3C(F)(F)F)C2=O)c1 [AFL-2, 2-{6-Cyclopropyl-4-[4-fluoro-2-(4-methyl-1,2,4-triazol-3-yl)phenyl]pyridin-2-yl}-6-{[(1-hydroxycyclobutyl)methoxy]methyl}-4-(trifluoromethyl)-3H-isoindol-1-one] | ≤ 200 nM | < 200 nM | < 200 nM |
| Cn1cnnc1-c1ccccc1-c1cc(C2CC2)nc(N2Cc3ccc(CNCC4(O)CCC4)cc3C2=O)c1 [AEH-1, 2-{6-Cyclopropyl-4-[2-(4-methyl-1,2,4-triazol-3-yl)phenyl]pyridin-2-yl}-6-({[(1-hydroxycyclobutyl)methyl]amino}methyl)-3H-isoindol-1-one] | ≤ 200 nM | < 200 nM | < 200 nM |
| CCOc1cc(-c2ccc(F)cc2-c2nncn2C)cc(N2Cc3c(cc(CNCC4(O)CCC4)cc3C(F)(F)F)C2=O)n1 [AGQ-2, 2-{6-Ethoxy-4-[4-fluoro-2-(4-methyl-1,2,4-triazol-3-yl)phenyl]pyridin-2-yl}-6-({[(1-hydroxycyclobutyl)methyl]amino}methyl)-4-(trifluoromethyl)-3H-isoindol-1-one] | ≤ 200 nM | < 200 nM | 200 to 1000 nM |
| COCCNCc1cc2c(c(C(F)(F)F)c1)CN(c1cc(-c3ccc(C#N)cc3-c3nncn3C)cc(C3CC3)n1)C2=O [AEN-1, 4-[2-Cyclopropyl-6-(6-{[(2-methoxyethyl)amino]methyl}-1-oxo-4-(trifluoromethyl)-3H-isoindol-2-yl)pyridin-4-yl]-3-(4-methyl-1,2,4-triazol-3-yl)benzonitrile] | ≤ 200 nM | < 200 nM | < 200 nM |
| Cn1cnnc1-c1cc(F)ccc1-c1cc(C2CC2)nc(N2Cc3ccc(CNCC4(O)CCCC4)cc3C2=O)c1 [AGP-1, 2-{6-Cyclopropyl-4-[4-fluoro-2-(4-methyl-1,2,4-triazol-3-yl)phenyl]pyridin-2-yl}-6-({[(1-hydroxycyclopentyl)methyl]amino}methyl)-3H-isoindol-1-one] | ≤ 200 nM | < 200 nM | 200 to 1000 nM |
| Cn1cnnc1-c1cc(F)ccc1-c1cc(C2CC2)nc(N2Cc3c(cccc3C(F)(F)F)C2=O)c1 [AND-2, 2-{6-Cyclopropyl-4-[4-fluoro-2-(4-methyl-1,2,4-triazol-3-yl)phenyl]pyridin-2-yl}-4-(trifluoromethyl)-3H-isoindol-1-one] | ≤ 200 nM | 200 to 1000 nM | 1000 to 10000 nM |
| CCNc1cc(-c2c(-c3nncn3C)cnn2C)cc(N2Cc3c(cc(CO[C@@H]4CCC[C@@H]4O)cc3C(F)(F)F)C2=O)n1 [ADH-1, 2-[6-(Ethylamino)-4-[2-methyl-4-(4-methyl-1,2,4-triazol-3-yl)pyrazol-3-yl]pyridin-2-yl]-6-({[(1R,2S)-2-hydroxycyclopentyl]oxy}methyl)-4-(trifluoromethyl)-3H-isoindol-1-one] | ≤ 200 nM | < 200 nM | 200 to 1000 nM |
